Results: patent US10654847B2, “Substituted 2-(4-heterocyclylbenzyl)isoindolin-1-one analogs as positive allosteric modulators of the muscarinic acetylcholine receptor M1” (Vanderbilt University, priority 2011, dated 2020)

Target: T1, mAChR M1 (UniProt P11229)
T1 sequence (P11229 1-460): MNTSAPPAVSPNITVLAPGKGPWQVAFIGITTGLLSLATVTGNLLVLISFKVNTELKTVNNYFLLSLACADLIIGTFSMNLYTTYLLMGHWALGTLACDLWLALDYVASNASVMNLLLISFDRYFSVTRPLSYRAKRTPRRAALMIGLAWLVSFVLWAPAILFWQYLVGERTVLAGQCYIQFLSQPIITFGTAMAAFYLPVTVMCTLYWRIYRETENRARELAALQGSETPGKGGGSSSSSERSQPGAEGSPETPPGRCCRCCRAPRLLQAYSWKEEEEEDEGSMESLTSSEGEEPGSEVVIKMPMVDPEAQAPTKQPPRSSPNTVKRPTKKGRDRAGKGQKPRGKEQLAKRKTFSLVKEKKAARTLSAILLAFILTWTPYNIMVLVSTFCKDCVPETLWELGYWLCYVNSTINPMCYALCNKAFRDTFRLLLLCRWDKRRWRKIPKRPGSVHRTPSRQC
Experiment: mAChR M1 cell-based functional assay (calcium mobilization, potentiation of EC20 acetylcholine response)
Conditions: for Emax (%): % ACh maximum at 30 μM, mAChR M1-expressing CHO-K1 cells, calcium flux; for pEC50 / EC50: positive allosteric modulation of EC20 ACh response, mAChR M1 CHO-K1 cells; for pEC50: <5 estimated where no plateau; for EC50: >10 μM estimated where no plateau, read-out: EC50
Experimental: Chinese hamster ovary (CHO-K1) cells stably expressing rat (r)M1 were purchased from the American Type Culture Collection and cultured according to their indicated protocol. […] To make stable rM2, hM2, rM3, hM4, and rM4 cell lines for use in calcium mobilization assays, these cells also were stably transfected with a chimeric G-protein (Gqi5) (provided by B. R. Conklin, University of California, San Francisco) using Lipofectamine 2000. rM1, hM1, rM3, hM3, rM5, and hM5 cells were grown in Ham's F-12 medium containing 10% heat-inactivated fetal bovine serum (FBS), 20 mM HEPES, and 50 μg/mL G418 sulfate. rM2-Gqi5, hM2-Gqi5, and hM4-Gqi5 cells were grown in the same medium also containing 500 μg/mL Hygromycin B. Stable rM4-Gqi5 cells were grown in DMEM containing 10% heat-inactivated FBS, 20 mM HEPES, 400 μg/mL G418 sulfate, and 500 μg/mL Hygromycin B.
For high throughput measurement of agonist-evoked increases in intracellular calcium, CHO-K1 cells stably expressing muscarinic receptors were plated in growth medium lacking G418 and hygromycin at 15,000 cells/20 μL/well in Greiner 384-well black-walled, tissue culture (TC)-treated, clear-bottom plates (VWR). Cells were incubated overnight at 37° C. and 5% CO2. […] Compound master plates were formatted in an 11 point CRC format (1:3 dilutions) in 100% DMSO with a starting concentration of 10 mM using the BRAVO liquid handler (Agilent). Test compound CRCs were then transferred to daughter plates (240 nL) using the Echo acoustic plate reformatter (Labcyte, Sunnyvale, Calif.) and then diluted into assay buffer (40 μL) to a 2× stock using a Thermo Fisher Combi (Thermo Fisher Scientific, Waltham, Mass.).
Calcium flux was measured using the Functional Drug Screening System (FDSS) 6000 (Hamamatsu Corporation, Tokyo, Japan) as an increase in the fluorescent static ratio. Compounds were applied to cells (20 μL, 2×) using the automated system of the FDSS 6000 at 4 s into the 300 s protocol and the data were collected at 1 Hz. […] Agonist activity was analyzed as a concentration-dependent increase in calcium mobilization upon compound addition. Positive allosteric modulator activity was analyzed as a concentration-dependent increase in the EC20 acetylcholine response. Antagonist activity was analyzed as a concentration-dependent decrease in the EC80 acetylcholine response. Concentration-response curves were generated using a four-parameter logistical equation in XLfit curve fitting software (IDBS, Bridgewater, N.J.) for Excel (Microsoft, Redmond, Wash.) or Prism (GraphPad Software, Inc., San Diego, Calif.).
The above described assay was also operated in a second mode where an appropriate fixed concentration of the present compounds were added to the cells after establishment of a fluorescence baseline for about 3 seconds, and the response in cells was measured. […] Data were reduced as described above and the EC50 values for the agonist in the presence of test compound were determined by nonlinear curve fitting. A decrease in the EC50 value of the agonist with increasing concentrations of the present compounds (a leftward shift of the agonist concentration-response curve) is an indication of the degree of muscarinic positive allosteric modulation at a given concentration of the present compound. An increase in the EC50 value of the agonist with increasing concentrations of the present compounds (a rightward shift of the agonist concentration response curve) is an indication of the degree of muscarinic antagonism at a given concentration of the present compound. The second mode also indicates whether the present compounds also affect the maximum response of the muscarinic receptor to agonists.
The calcium mobilization assay was also used to determine “efficacy”.

Compound	Emax (%)	pEC50	EC50
O=C1Cc2cc(-c3ccc(CN4Cc5ncccc5C4=O)c(F)c3)ccc2N1 [Example B86]	58%	6.25	0.562 µM
Cn1cc2c(-c3cc(F)c(CN4Cc5ncccc5C4=O)cc3F)cccc2n1 [Example B87]	68%	5.22	6.03 µM
O=C1c2cccnc2CN1Cc1c(F)cc(-c2cnc3ccccn23)cc1F [Example B88]	63%	<5.00	> 10 µM
O=C1c2cccnc2CN1Cc1c(F)cc(-c2cccc3nccn23)cc1F [Example B89]	48%	<5.00	> 10 µM
O=C1c2cccnc2CN1Cc1ccc(-c2cn3ccnc3cn2)cc1F [Example B90]	53%	<5.00	> 10 µM
O=C1Cc2cc(-c3cc(F)c(CN4Cc5ncccc5C4=O)c(F)c3)ccc2N1 [Example B91]	67%	6.51	0.309 µM
O=C1c2cccnc2CN1Cc1ccc(-c2ccc3cncn3c2)cc1F [Example B92]	62%	6.06	0.871 µM
O=C1c2cccnc2CN1Cc1ccc(-c2cnc3ccccn23)cc1F [Example B93]	65%	5.53	2.95 µM
O=C1c2cccnc2CN1Cc1c(F)cc(-c2ccc3c(c2)OCCO3)cc1F [Example B94]	36%	6.71	0.195 µM
O=C1c2cccnc2CN1Cc1c(F)cc(-c2cccc3ncccc23)cc1F [Example B95]	53%	<5.00	> 10 µM
O=C1c2cccnc2CN1Cc1c(F)cc(-c2ccc3ncccc3c2)cc1F [Example B96]	54%	6.56	0.275 µM
O=C1c2cccnc2CN1Cc1c(F)cc(-c2ccc3cnccc3c2)cc1F [Example B97]	62%	6.23	0.589 µM
Cc1n[nH]c2cc(-c3cc(F)c(CN4Cc5ncccc5C4=O)c(F)c3)ccc12 [Example B98]	49%	6.68	0.209 µM
O=C1c2cccnc2CN1Cc1c(F)cc(-c2cccc3cnccc23)cc1F [Example B99]	41%	<5.00	> 10 µM
O=C1c2cccnc2CN1Cc1c(F)cc(-c2ccc3cncn3c2)cc1F [Example B100]	71%	5.88	1.32 µM
O=C1c2cccnc2CN1Cc1c(F)cc(-c2ccc3c(c2)C2(OCCO2)C(=O)N3)cc1F [Example B101]	48%	<5.00	> 10 µM
Cc1n[nH]c2ccc(-c3cc(F)c(CN4Cc5ncccc5C4=O)c(F)c3)cc12 [Example B102]	68%	6.91	0.123 µM
CN1CCc2cc(-c3cc(F)c(CN4Cc5ncccc5C4=O)c(F)c3)ccc21 [Example B103]	56%	5.83	1.48 µM
COc1cc(-c2cccc3nn(C)cc23)ccc1CN1Cc2ncccc2C1=O [Example B104]	70%	5.82	1.51 µM
Cn1cc2cc(-c3cc(F)c(CN4Cc5ncccc5C4=O)cc3F)ccc2n1 [Example B105]	69%	6.39	0.407 µM

Compound	Emax (%)	pEC50	EC50
Cn1cc2cc(-c3cccc(CN4Cc5ncccc5C4=O)c3F)ccc2n1 [Example B106]	41%	5.42	3.8 µM
CN1Cc2ccc(-c3cc(F)c(CN4Cc5ncccc5C4=O)c(F)c3)cc2C1 [Example B107]	56%	5.76	1.74 µM
Cn1cc2ccc(-c3ccc(F)c(CN4Cc5ncccc5C4=O)c3)cc2n1 [Example B108]	56%	5.07	8.51 µM
Cn1cc2c(-c3cccc(CN4Cc5ncccc5C4=O)c3F)cccc2n1 [Example B109]	36%	5.14	7.24 µM
Cn1cc2c(-c3ccc(F)c(CN4Cc5ncccc5C4=O)c3)cccc2n1 [Example B110]	61%	5.71	1.95 µM
Cn1cc2cc(-c3ccc(F)c(CN4Cc5ncccc5C4=O)c3)ccc2n1 [Example B111]	42%	5.63	2.34 µM
Cn1cc2c(n1)CCN(c1ccc(CN3Cc4ncccc4C3=O)c(F)c1)C2 [Example B112]	32%	<5.00	> 10 µM
CC1c2ccccc2C(=O)N1Cc1ccc(-c2cnn(C)c2)cc1F (stereo not drawn) [Example B113]	<30%	<5.00	> 10 µM
Cn1ncc2cc(-c3ccc(CN4Cc5ccccc5C4=O)c(F)c3)ccc21 [Example B114]	<30%	<5.00	> 10 µM
O=S1(=O)c2ccccc2CN1Cc1ccc(-n2cccn2)cc1 [Example B115]	<30%	<5.00	> 10 µM
Cc1nc(-c2ccc(CN3Cc4ccccc4S3(=O)=O)cc2)cs1 [Example B116]	<30%	<5.00	> 10 µM
O=S1(=O)c2ccccc2CN1Cc1ccc(-c2cnns2)cc1 [Example B117]	<30%	<5.00	> 10 µM
Cc1noc(-c2ccc(CN3Cc4ccccc4S3(=O)=O)cc2)n1 [Example B118]	<30%	<5.00	> 10 µM
Cc1nc(-c2ccc(CN3Cc4ccccc4S3(=O)=O)cc2)no1 [Example B119]	<30%	<5.00	> 10 µM
O=S1(=O)c2ccccc2CN1Cc1ccc(-c2coc(-c3ccccc3)n2)cc1 [Example B120]	<30%	<5.00	> 10 µM
O=C1c2ccccc2CN1Cc1ccc(-c2ccc3cc[nH]c3c2)cc1F [Example B121]	<30%	<5.00	> 10 µM
CSc1ncc(-c2ccc(CN3Cc4ccccc4C3=O)c(F)c2)cn1 [Example B122]	<30%	<5.00	> 10 µM
Cc1nnc(-c2ccc(CN3Cc4ccccc4S3(=O)=O)cc2)o1 [Example B123]	<30%	<5.00	> 10 µM
O=S1(=O)c2ccccc2CN1Cc1ccc(Oc2ccccc2)cc1 [Example B124]	<30%	<5.00	> 10 µM
O=S1(=O)c2ccccc2CN1Cc1ccc(-n2cccc2)cc1 [Example B125]	<30%	<5.00	> 10 µM
